The text below walks through data of patent US6143764A, “Quinoline and quinazoline derivatives inhibiting platelet-derived growth factor receptor autophosphorylation and pharmaceutical compositions containing the same” (priority 1995, dated 2000).

Experiment [1] relates to mouse leukemia cells (P388). The experiment is described as follows: Antitumor effect against mouse leukemia cells (P388), survival of mice. In kind it is in vivo. As to conditions: CDF1 mice, 100 mg/kg intraperitoneally, 9 consecutive days. As to the method:
P388 cells (1×10^5 cells), mouse leukemia cells obtained from ATCC, were inoculated intraperitoneally into CDF1 mice (obtained from Japan SLC, Inc.), and then the test compound was administered intraperitoneally for 9 consecutive days at the dose of 100 mg/kg. The drug-treated animals survived longer than control animals by 130%.

A further experiment has as its system L-27 (lung). The experiment is described as follows: Antitumor effect against L-27 lung tumor in nude mice. Format: in vivo. Particulars: 100 mg/kg intraperitoneally once a day, 9 days. The method, then: (§1) Human glioma, GLO7 (obtained from the Central Institute for Experimental Animals), was transplanted into nude mice. When the tumor had grown to a volume of about 100 mm^3, the nude mice were divided into several groups of 4 animals so as to equalize the average tumor volumes of each group. The test drug was administered orally to animals in experimental groups 2 times a day for 14 consecutive days at 100 mg/kg, and the vehicle was administered to control animals. The tumor growth inhibition rate (TGIR, %) was calculated from the equation: TGIR=(1-Tx/Cx)×100, in which Cx is the tumor volume in the control mice and Tx is the tumor volume in the drug-treated mice, on day X, when the initial tumor volume at the time treatment was commenced is set 1.
(§2) In the same manner as described in 2, various types of tumor cells (obtained from the Central Institute for Experimental Animals) were transplanted into nude mice. When the tumor had grown to a volume of about 100 mm^3, the animals were allocated to several groups each consisting of 4 animals so as to equalize the average tumor volume of each group. Test drugs were administered intraperitoneally to animals in experimental groups once a day for 9 consecutive days at 100 mg/kg, and the vehicle was administered to control animals.

For a further experiment, the target named is T1, PDGF receptor (Rattus norvegicus, UniProt Q05030).
T1 construct: cultured rat mesangial cells which are known to have the PDGF receptor; endogenous in cells; host or cells: primary mesangial cells cultured from glomeruli of Wistar-Kyoto rats (Charles River Japan), more than 5 passages
The experiment is described as follows: PDGF receptor autophosphorylation inhibition in cultured rat mesangial cells. Format: cell-based. As to conditions: PDGF-BB 50 ng/ml. The procedure, abridged: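 Growth-arrested rat mesangial cells (>5 passages, 0.5% FCS for 3 days) preincubated with drug in 0.1% BSA medium for 1 h at 37° C., then stimulated with 50 ng/ml human PDGF-BB for 10 min. Phosphotyrosine Western blot of ~180 kDa receptor band by densitometry, normalized to PDGF-stimulated (100%) and unstimulated (0%) wells.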

The test system of the next experiment is COL-1 (colon). The experiment is described as follows: Antitumor effect against COL-1 colon tumor in nude mice. Format: in vivo. Particulars: 100 mg/kg intraperitoneally once a day, 9 days. The method, then:
as §1, §2

The next experiment relates to St-4 (stomach). The experiment is described as follows: Antitumor effect against St-4 stomach tumor in nude mice. Particulars: 100 mg/kg intraperitoneally once a day, 9 days. Format: in vivo. As to the method:
as §1, §2

Experiment [2] concerns human glioma cells (GLO7). Put plainly: Antitumor effect of compound number 43 against human glioma (GLO7), nude mice xenograft. Format: in vivo. As to conditions: 100 mg/kg orally 2 times a day, 14 days, test period about 4 weeks. The method, then:
as §1, with “1. During the test period of about 4 weeks, the maximum TGIR value was 76%, and thus an excellent antitumor effect was observed.” for “1.”
(A xenograft is tissue or cells of one species grown in another, often human tumour cells in immunodeficient mice.)

The subject of experiment [3] is collagen-induced arthritis in mice. The experiment is described as follows: Effect on collagen-induced arthritis in mice. As to conditions: for Number of mice with arthritis/total mice: 16 days; for Incidence of collagen-induced arthritis: 16 days (vehicle 70). Format: in vivo, mouse (DBA/lJNCrj).
The test system of a further experiment is human glioma (GLO7). Put plainly: Antitumor effect of the compounds against human glioma (GLO7), nude mice xenograft. In kind it is in vivo. As to conditions: Mus musculus, po, 216 h, read-out: Tumor growth inhibition rate (TGIR).
Experiment [4] relates to glomerulonephritis associated with mesangial cell growth in rats. The experiment is described as follows: Effect on nephritis associated with mesangial cell growth in rats (OX-7 induced glomerulonephritis). In kind it is in vivo, Wistar-Kyoto rat. As to conditions: 8 days. The method, then: Effect on nephritis associated with mesangial cell growth in rats
Groups of 6 Wistar-Kyoto male rats (7 weeks old, purchased from Charles River Japan, Inc.) were used. OX-7 (prepared according to Pathol. Int., 45, 409 (1995)), a monoclonal antibody against anti-rat Thy1.1, was injected intravenously into the tails of rats at a dose of 1.2 mg/kg to induce glomerulonephritis associated with mesangial cell growth and extracellular matrix accumulation. A test drug suspended in a vehicle, a 1% aqueous cremophor solution, was administered orally 2 times a day starting one day after an OX-7 injection for 8 consecutive days. On day 9, when pathological changes in glomeruli became markedly apparent, the rats were sacrificed and anatomized under anesthesia with ether, and left kidneys were taken out and fixed in formalin. The kidneys were embedded in paraffin and then sectioned thinly, and the sections were stained with a periodic acid-Schiff's reagent. The 20 glomeruli were arbitrarily selected for individual specimens thus prepared, and pathological sclerotic changes were scored as follows:
Average scores for sclerotic change of individual specimens were calculated to quantify the degree of glomerular sclerosis. Average scores of glomerular sclerosis for individual specimens of rat groups administered with the drug were compared with those for control groups administered with the vehicle only to calculate glomerular sclerosis inhibition rates (%). The significance of differences was determined by the Dunnet method after testing homoscedasticity according to the Bartlett method.

[5] abbreviates: nude mice, 50 mg/kg orally once a day, 9 days.

Like-named read-outs stand apart in the source and are kept apart here.

T1 sequence (Q05030 32-1097): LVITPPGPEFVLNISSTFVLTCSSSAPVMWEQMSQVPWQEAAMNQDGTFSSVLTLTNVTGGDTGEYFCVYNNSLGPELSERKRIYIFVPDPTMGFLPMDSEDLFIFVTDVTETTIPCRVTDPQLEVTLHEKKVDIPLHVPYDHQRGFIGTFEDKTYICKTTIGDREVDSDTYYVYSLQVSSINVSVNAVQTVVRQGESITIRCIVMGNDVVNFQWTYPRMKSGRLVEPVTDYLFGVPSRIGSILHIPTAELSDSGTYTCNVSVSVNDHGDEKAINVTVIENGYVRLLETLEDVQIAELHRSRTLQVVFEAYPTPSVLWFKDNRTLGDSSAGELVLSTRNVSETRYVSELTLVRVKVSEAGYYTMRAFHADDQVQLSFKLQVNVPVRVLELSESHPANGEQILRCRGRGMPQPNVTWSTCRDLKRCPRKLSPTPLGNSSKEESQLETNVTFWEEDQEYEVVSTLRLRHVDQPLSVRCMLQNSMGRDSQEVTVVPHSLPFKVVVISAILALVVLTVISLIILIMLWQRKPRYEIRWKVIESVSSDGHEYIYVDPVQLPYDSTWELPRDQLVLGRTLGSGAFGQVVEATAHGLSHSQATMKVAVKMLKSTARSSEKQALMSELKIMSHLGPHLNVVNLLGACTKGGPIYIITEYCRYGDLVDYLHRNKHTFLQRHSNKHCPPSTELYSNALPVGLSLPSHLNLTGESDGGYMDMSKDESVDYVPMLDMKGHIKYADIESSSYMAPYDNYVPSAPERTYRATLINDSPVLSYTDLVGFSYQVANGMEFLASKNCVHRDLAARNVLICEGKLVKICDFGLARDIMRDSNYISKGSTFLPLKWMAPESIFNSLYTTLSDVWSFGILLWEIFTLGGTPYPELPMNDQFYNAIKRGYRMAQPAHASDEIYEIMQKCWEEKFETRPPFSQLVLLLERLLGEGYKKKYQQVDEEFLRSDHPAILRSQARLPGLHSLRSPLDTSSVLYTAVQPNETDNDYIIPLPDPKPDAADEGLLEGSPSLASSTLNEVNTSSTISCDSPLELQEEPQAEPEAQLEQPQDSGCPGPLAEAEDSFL

Usually IC50 stands for the point on the concentration scale where inhibition reaches its midpoint. Lower therefore signals higher potency. Turning to `COc1ccc(NC(=O)Nc2ccc(Oc3ccnc4cc(OC)c(OC)cc34)cc2)cc1` [Compound 43, N-(4-Methoxyphenyl)-N'-{4-[(6,7-dimethoxy-4-quinolinyl)oxy]phenyl}urea], the “prolonged survival: drug-treated animals survived longer than control animals by” value in experiment [1] is on record as 130%. The entries for the “Tumor growth inhibition rate (TGIR)” value in the experiment with L-27 (lung), in the experiment with COL-1 (colon) and in the experiment on St-4 (stomach) were 83%, 68% and 78%, respectively. The same molecule displayed an IC50 against PDGF receptor of 5 nM. In addition, the “maximum tumor growth inhibition rate (TGIR)” value in experiment [2] is recorded as 76%. The “Number of mice with arthritis/total mice” value in [3] (10 mg/kg intraperitoneally) is recorded as 1/9; in [3] (100 mg/kg intraperitoneally), 0/10. Also, the “Incidence of collagen-induced arthritis” value is listed as 11% in experiment [3] (10 mg/kg intraperitoneally) and 0% in [3] (100 mg/kg intraperitoneally).
As for `COc1cccc(NC(=O)Nc2ccc(Oc3ccnc4cc(OC)c(OC)cc34)cc2)c1` [Compound 58], in the experiment with human glioma (GLO7), the inhibition in vivo at 50 mg/kg stood at 57%. Moreover, the “Tumor growth inhibition rate (TGIR)” value worked out at 96% with L-27 (lung), 74% in the experiment with COL-1 (colon) and 86% in the experiment on St-4 (stomach).
With `COc1cc2nccc(Oc3ccc(NC(=O)Nc4ccc(C(F)(F)F)cc4)cc3)c2cc1OC` [Compound 52, N-(4-Trifluoromethylphenyl)-N'-{4-[(6,7-dimethoxy-4-quinolinyl)oxy]phenyl}urea], the inhibition in vivo at 50 mg/kg in the experiment with human glioma (GLO7) (setting [5]) was determined as 86%. Also, 30 nM corresponded to half-maximal inhibition at PDGF receptor (IC50).
The like results for `COc1cc2nccc(Oc3ccc(NC(=O)Nc4cccc(Cl)c4OC)cc3)c2cc1OC` [Compound 225, N-(3-Chloro-2-methoxyphenyl)-N'-{4-[(6,7-dimethoxy-4-quinolyl)oxy]phenyl}urea] were, in that order, 58% and 47 nM.
The like results for `COc1cc2nccc(Oc3ccc(NC(=O)Nc4ccc(Cl)c(N)c4)cc3)c2cc1OC` [Compound 244, N-(3-Amino-4-chlorophenyl)-N'-{4-[(6,7-dimethoxy-4-quinolyl)oxy]phenyl}urea] were, in that order, 73% and 9 nM.
Consider `COc1cc2nccc(Oc3ccc(NC(=O)Nc4ccc(Cl)cc4C)cc3)c2cc1OC` [Compound 242, N-(4-Chloro-2-methylphenyl)-N'-{4-[(6,7-dimethoxy-4-quinolyl)oxy]phenyl}urea], for which the inhibition in vivo at 50 mg/kg in the experiment on human glioma (GLO7) (setting [5]) was 62%. On PDGF receptor, this molecule gave an IC50 of 18 nM.
The like results for `COc1cc2nccc(Oc3ccc(NC(=O)Nc4cccc(Cl)c4)cc3)c2cc1OC` [Compound 267, N-(3-Chlorophenyl)-N'-{4-[(6,7-dimethoxy-4-quinolyl)oxy]phenyl}urea] were, in that order, 65% and 150 nM.
The like results for `COc1cc2nccc(Oc3ccc(NC(=O)Nc4ccc(F)c(F)c4)cc3)c2cc1OC` [Compound 254, N-(3,4-Difluorophenyl)-N'-(4-[(6,7-dimethoxy-4-quinolyl)oxy]phenyl)urea] were, in that order, 85% and 7 nM.
The like results for `COc1cc2nccc(Oc3ccc(NC(=O)Nc4ccc(F)cc4F)cc3)c2cc1OC` [Compound 272, N-(2,4-Difluorophenyl)-N'-{4-[(6,7-dimethoxy-4-quinolyl)oxy]phenyl}urea] were, in that order, 84% and 3 nM.
Consider `COc1cc2nccc(Oc3ccc(NC(=O)Nc4cccc(F)c4)cc3)c2cc1OC` [Compound 59], for which the inhibition in vivo at 50 mg/kg with human glioma (GLO7) (setting [5]) was 82%. The molecule also came in with an IC50 at PDGF receptor of 4 nM.
`COc1cc2nccc(Oc3ccc(C(=O)c4ccc(C(C)(C)C)cc4)cc3)c2cc1OC` [Compound 32, (4-t-Butylphenyl){4-[(6,7-dimethoxy-4-quinolyl)oxy]phenyl}methanone] yielded a half-maximal inhibitory concentration (IC50) against PDGF receptor of 300 nM. The “Glomerular sclerosis inhibition rate” value in experiment [4] (10 mg/kg oral 2 times a day, p < 0.05) turned out to be 11.7%; in experiment [4] (30 mg/kg oral 2 times a day, p < 0.05) it was 10.2%; in [4] (100 mg/kg oral 2 times a day, p < 0.01) it was 13.7%.
